According to US9493466B2, “Treatment of cancer with TOR kinase inhibitors” (Signal Pharmaceuticals, LLC, priority 2011, dated 2016):

Legend:
Test in all cases: Apoptosis assay for NHL lines (Caspase 3/7-Glo)
Type in all cases: cell-based
DB = conditions: NHL DLBCL, 24 hours, n = 1
Description: (§1) Apoptosis Assay for NHL Lines. Prior to testing, cells were grown and expanded in culture flasks to provide sufficient amounts of starting material. Cells were then diluted to their desired densities and added directly to compound-spotted 384-well plates. Cells were allowed to grow for 24 hours in 5% CO2 at 37° C. The apoptotic response was assessed by quantifying the activities of caspase 3 and caspase 7 (Caspase 3/7-Glo) in treated cells and control cells at the 24-hour time point. All data was normalized and represented as a value relative to the DMSO-treated cells. Results were then expressed as CalX, which is the minimum compound concentration required to double the levels of caspase 3/7 relative to those of the DMSO-treated cells during their treatment period.

DOHH-2 = conditions: DOHH-2, NHL FL, 24 hours, n = 1
Description: as §1

Granta-519 = conditions: Granta-519, NHL MCL, 24 hours, n = 1
Description: as §1

HL-60 = conditions: HL-60, Leukemia M-AML, 24 hours, n = 1
Description: as §1

HT = conditions: NHL DLBCL, 24 hours, n = 1
Description: as §1

JEKO-1 = conditions: JEKO-1, NHL MCL, 24 hours, n = 1
Description: as §1

JVM-13 = conditions: JVM-13, NHL MCL, 24 hours, n = 1
Description: as §1

JVM-2 = conditions: JVM-2, NHL MCL, 24 hours, n = 1
Description: as §1

KARPAS-1106P = conditions: NHL DLBCL, 24 hours, n = 1
Description: as §1

KARPAS-299 = conditions: KARPAS-299, ALCL T-cell, 24 hours, n = 1
Description: as §1

Mino = conditions: NHL MCL, 24 hours, n = 1
Description: as §1

NU-DHL-1 = conditions: NU-DHL-1, NHL DLBCL, 24 hours, n = 1
Description: as §1

OCI-LY-10 = conditions: OCI-LY-10, NHL DLBCL, 24 hours, n = 1
Description: as §1

OCI-LY-7 = conditions: OCI-LY-7, NHL DLBCL, 24 hours, n = 1
Description: as §1

Pfeiffer = conditions: NHL DLBCL, 24 hours, n = 1
Description: as §1

RC-K8 = conditions: RC-K8, NHL DLBCL, 24 hours, n = 1
Description: as §1

RIVA = conditions: NHL DLBCL, 24 hours, n = 1
Description: as §1

SU-DHL-10 = conditions: SU-DHL-10, NHL DLBCL, 24 hours, n = 1
Description: as §1

SU-DHL-16 = conditions: SU-DHL-16, NHL DLBCL, 24 hours, n = 1
Description: as §1

SU-DHL-1 = conditions: SU-DHL-1, ALCL T-cell, 24 hours, n = 1
Description: as §1

SU-DHL-4 = conditions: SU-DHL-4, NHL DLBCL, 24 hours, n = 1
Description: as §1

SU-DHL-5 = conditions: SU-DHL-5, NHL DLBCL, 24 hours, n = 1
Description: as §1

SU-DHL-6 = conditions: SU-DHL-6, NHL DLBCL, 24 hours, n = 1
Description: as §1

SU-DHL-8 = conditions: SU-DHL-8, NHL DLBCL, 24 hours, n = 1
Description: as §1

THP-1 = conditions: THP-1, Leukemia M-AML, 24 hours, n = 1
Description: as §1

U-2932 = conditions: U-2932, NHL DLBCL, 24 hours, n = 1
Description: as §1

U-2940 = conditions: U-2940, NHL DLBCL, 24 hours, n = 1
Description: as §1

WSU-DLCL2 = conditions: WSU-DLCL2, NHL DLBCL, 24 hours, n = 1
Description: as §1

CO[C@H]1CC[C@H](N2C(=O)CNc3ncc(-c4ccc(C(C)(C)O)nc4)nc32)CC1 [Compound 1, 7-(6-(2-hydroxypropan-2-yl)pyridin-3-yl)-1-((1r,4r)-4-methoxycyclohexyl)-3,4-dihydropyrazino-[2,3-b]pyrazin-2(1H)-one] was tested, and the Apoptotic (DB) was “N/Y”, the “CalX (minimum concentration to double caspase 3/7)” value (shortened to “CalX”) (DB) was 5.44 and the “CalX” value (DOHH-2) was 0.14. The “CalX” value (Granta-519) was 10, the “CalX” value (HL-60) was 10 and the Apoptotic (HT) was “N/Y”. For the same compound, the “CalX” value (HT) was 5.62, the “CalX” value (JEKO-1) was 0.56 and the Apoptotic (JVM-13) was “N/Y”. The “CalX” value (JVM-13) was 4.27, the Apoptotic (JVM-2) was “N/Y” and the “CalX” value (JVM-2) was 3.2. The “CalX” value (KARPAS-1106P) was 0.25, the Apoptotic (KARPAS-299) was “N/Y” and the “CalX” value (KARPAS-299) was 9.61. The “CalX” value (Mino) was 0.53, the “CalX” value (NU-DHL-1) was 0.41 and the “CalX” value (OCI-LY-10) was 0.7. For the same compound, the “CalX” value (OCI-LY-7) was 0.07, the “CalX” value (Pfeiffer) was 10 and the Apoptotic (RC-K8) was “N/Y”. The “CalX” value (RC-K8) was 6.51, the Apoptotic (RIVA) was “N/Y” and the “CalX” value (RIVA) was 3.84. The “CalX” value (SU-DHL-10) was 0.54, the “CalX” value (SU-DHL-16) was 0.11 and the “CalX” value (SU-DHL-1) was 10. For the same compound, the Apoptotic (SU-DHL-4) was “N/Y”, the “CalX” value (SU-DHL-4) was 5.15 and the “CalX” value (SU-DHL-5) was 0.59. The “CalX” value (SU-DHL-6) was 10, the “CalX” value (SU-DHL-8) was 0.07 and the Apoptotic (THP-1) was “N/Y”. The “CalX” value (THP-1) was 7.57, the “CalX” value (U-2932) was 2.04 and the “CalX” value (U-2940) was 0.43. The “CalX” value (WSU-DLCL2) was 0.19.
